Source: the supplement of paper PMC13380429

Key:
Settings in all cases: 72 h
[1] = tested on: HepG2; assay: relative viability EC50 (midpoint between 100% and the lowest measured viability); higher = less toxic
[2] = tested on: Caco-2; assay: as above
[3] = tested on: Vero E6; assay: as above
[4] = tested on: U2OS; assay: as above
[5] = tested on: Calu-3; assay: as above
[6] = tested on: HepG2; assay: drug sensitivity score (DSS) for viability; higher = more toxic; extreme values may be limits of the assay
[7] = tested on: Caco-2; assay: as above
[8] = tested on: Vero E6; assay: as above
[9] = tested on: U2OS; assay: as above
[10] = tested on: Calu-3; assay: as above
[11] = tested on: HepG2; assay: cell viability relative to DMSO; higher = less toxic
[12] = tested on: Caco-2; assay: as above
[13] = tested on: Vero E6; assay: as above
[14] = tested on: U2OS; assay: as above
[15] = tested on: Calu-3; assay: as above

Clc1cccc(SC2CCNCC2)n1 [anpirtoline]
relative viability EC50 [1]: > 10 µM | relative viability EC50 [2]: > 10 µM | relative viability EC50 [3]: > 10 µM | relative viability EC50 [4]: > 10 µM | relative viability EC50 [5]: > 10 µM | drug sensitivity score [6]: 0 | drug sensitivity score [7]: 0 | drug sensitivity score [8]: 0 | drug sensitivity score [9]: 0 | drug sensitivity score [10]: 0 | cell viability ([11]; 1 nM): 109% | cell viability ([11]; 10 nM): 102% | cell viability ([11]; 100 nM): 107% | cell viability ([11]; 1000 nM): 104% | cell viability ([11]; 10000 nM): 97.9% | cell viability ([12]; 1 nM): 93.1% | cell viability ([12]; 10 nM): 93.5% | cell viability ([12]; 100 nM): 101% | cell viability ([12]; 1000 nM): 100% | cell viability ([12]; 10000 nM): 96.8% | cell viability ([13]; 1 nM): 102% | cell viability ([13]; 10 nM): 104% | cell viability ([13]; 100 nM): 99.1% | cell viability ([13]; 1000 nM): 98.4% | cell viability ([13]; 10000 nM): 96.5% | cell viability ([14]; 1 nM): 99.3% | cell viability ([14]; 10 nM): 96.5% | cell viability ([14]; 100 nM): 100% | cell viability ([14]; 1000 nM): 96.1% | cell viability ([14]; 10000 nM): 100% | cell viability ([15]; 1 nM): 94.9% | cell viability ([15]; 10 nM): 98.6% | cell viability ([15]; 100 nM): 93.5% | cell viability ([15]; 1000 nM): 98.3% | cell viability ([15]; 10000 nM): 114%

O=C1COc2c(CCNCCN(C(=O)CCNCCc3ccc(Cl)c(Cl)c3)C3CCCCC3)ccc(O)c2N1 [AZ505]
relative viability EC50 [1]: > 10 µM | relative viability EC50 [2]: > 10 µM | relative viability EC50 [3]: > 10 µM | relative viability EC50 [4]: > 10 µM | relative viability EC50 [5]: > 10 µM | drug sensitivity score [6]: 0 | drug sensitivity score [7]: 0 | drug sensitivity score [8]: 0 | drug sensitivity score [9]: 0 | drug sensitivity score [10]: 0 | cell viability ([11]; 1 nM): 95.9% | cell viability ([11]; 10 nM): 98.6% | cell viability ([11]; 100 nM): 118% | cell viability ([11]; 1000 nM): 97.2% | cell viability ([11]; 10000 nM): 89.4% | cell viability ([12]; 1 nM): 104% | cell viability ([12]; 10 nM): 98.4% | cell viability ([12]; 100 nM): 95.8% | cell viability ([12]; 1000 nM): 97.8% | cell viability ([12]; 10000 nM): 97.9% | cell viability ([13]; 1 nM): 107% | cell viability ([13]; 10 nM): 99.4% | cell viability ([13]; 100 nM): 104% | cell viability ([13]; 1000 nM): 99.7% | cell viability ([13]; 10000 nM): 109% | cell viability ([14]; 1 nM): 102% | cell viability ([14]; 10 nM): 101% | cell viability ([14]; 100 nM): 99.2% | cell viability ([14]; 1000 nM): 103% | cell viability ([14]; 10000 nM): 91.2% | cell viability ([15]; 1 nM): 88.2% | cell viability ([15]; 10 nM): 89.6% | cell viability ([15]; 100 nM): 108% | cell viability ([15]; 1000 nM): 102% | cell viability ([15]; 10000 nM): 105%

N#CC(Cc1ccc(O)cc1)c1ccc(O)cc1 (stereo not given) [diarylpropionitrile]
relative viability EC50 [1]: > 10 µM | relative viability EC50 [2]: > 10 µM | relative viability EC50 [3]: > 10 µM | relative viability EC50 [4]: > 10 µM | relative viability EC50 [5]: > 10 µM | drug sensitivity score [6]: 0 | drug sensitivity score [7]: 0 | drug sensitivity score [8]: 0 | drug sensitivity score [9]: 0 | drug sensitivity score [10]: 0 | cell viability ([11]; 1 nM): 98.7% | cell viability ([11]; 10 nM): 90.3% | cell viability ([11]; 100 nM): 99.6% | cell viability ([11]; 1000 nM): 89.2% | cell viability ([11]; 10000 nM): 102% | cell viability ([12]; 1 nM): 99% | cell viability ([12]; 10 nM): 103% | cell viability ([12]; 100 nM): 88.4% | cell viability ([12]; 1000 nM): 100% | cell viability ([12]; 10000 nM): 95.3% | cell viability ([13]; 1 nM): 99.4% | cell viability ([13]; 10 nM): 104% | cell viability ([13]; 100 nM): 99.1% | cell viability ([13]; 1000 nM): 102% | cell viability ([13]; 10000 nM): 94.8% | cell viability ([14]; 1 nM): 99.6% | cell viability ([14]; 10 nM): 99.4% | cell viability ([14]; 100 nM): 98.7% | cell viability ([14]; 1000 nM): 102% | cell viability ([14]; 10000 nM): 102% | cell viability ([15]; 1 nM): 108% | cell viability ([15]; 10 nM): 91.2% | cell viability ([15]; 100 nM): 100% | cell viability ([15]; 1000 nM): 94.3% | cell viability ([15]; 10000 nM): 103%

Oc1ccc(-c2c(-c3ccccc3)nn3c(C(F)(F)F)cc(C(F)(F)F)nc23)cc1 [PHTPP]
relative viability EC50 [1]: > 10 µM | relative viability EC50 [2]: > 10 µM | relative viability EC50 [3]: > 10 µM | relative viability EC50 [4]: > 10 µM | relative viability EC50 [5]: > 10 µM | drug sensitivity score [6]: 0 | drug sensitivity score [7]: 0 | drug sensitivity score [8]: 0 | drug sensitivity score [9]: 0 | drug sensitivity score [10]: 0 | cell viability ([11]; 1 nM): 104% | cell viability ([11]; 10 nM): 95.5% | cell viability ([11]; 100 nM): 83.4% | cell viability ([11]; 1000 nM): 103% | cell viability ([11]; 10000 nM): 88.7% | cell viability ([12]; 1 nM): 104% | cell viability ([12]; 10 nM): 100% | cell viability ([12]; 100 nM): 99.1% | cell viability ([12]; 1000 nM): 102% | cell viability ([12]; 10000 nM): 95.9% | cell viability ([13]; 1 nM): 105% | cell viability ([13]; 10 nM): 109% | cell viability ([13]; 100 nM): 95.8% | cell viability ([13]; 1000 nM): 105% | cell viability ([13]; 10000 nM): 96.5% | cell viability ([14]; 1 nM): 99.5% | cell viability ([14]; 10 nM): 96.5% | cell viability ([14]; 100 nM): 102% | cell viability ([14]; 1000 nM): 99.2% | cell viability ([14]; 10000 nM): 100% | cell viability ([15]; 1 nM): 98.5% | cell viability ([15]; 10 nM): 94.6% | cell viability ([15]; 100 nM): 97.4% | cell viability ([15]; 1000 nM): 91.3% | cell viability ([15]; 10000 nM): 113%

N[C@@H]1CCN(c2cccnc2)C1 [ABT-202]
relative viability EC50 [1]: > 10 µM | relative viability EC50 [2]: > 10 µM | relative viability EC50 [3]: > 10 µM | relative viability EC50 [4]: > 10 µM | relative viability EC50 [5]: > 10 µM | drug sensitivity score [6]: 0 | drug sensitivity score [7]: 0 | drug sensitivity score [8]: 0 | drug sensitivity score [9]: 0 | drug sensitivity score [10]: 0 | cell viability ([11]; 1 nM): 97.8% | cell viability ([11]; 10 nM): 99% | cell viability ([11]; 100 nM): 104% | cell viability ([11]; 1000 nM): 105% | cell viability ([11]; 10000 nM): 109% | cell viability ([12]; 1 nM): 101% | cell viability ([12]; 10 nM): 102% | cell viability ([12]; 100 nM): 96% | cell viability ([12]; 1000 nM): 95.7% | cell viability ([12]; 10000 nM): 106% | cell viability ([13]; 1 nM): 102% | cell viability ([13]; 10 nM): 97.4% | cell viability ([13]; 100 nM): 104% | cell viability ([13]; 1000 nM): 94.5% | cell viability ([13]; 10000 nM): 108% | cell viability ([14]; 1 nM): 96.1% | cell viability ([14]; 10 nM): 98.8% | cell viability ([14]; 100 nM): 96.1% | cell viability ([14]; 1000 nM): 102% | cell viability ([14]; 10000 nM): 103% | cell viability ([15]; 1 nM): 93.1% | cell viability ([15]; 10 nM): 90.3% | cell viability ([15]; 100 nM): 99.8% | cell viability ([15]; 1000 nM): 97.5% | cell viability ([15]; 10000 nM): 99.3%

CC(=O)N1CC[N+](C)(C)CC1 [4-acetyl-1,1-dimethylpiperazinium]
relative viability EC50 [1]: > 10 µM | relative viability EC50 [2]: > 10 µM | relative viability EC50 [3]: > 10 µM | relative viability EC50 [4]: > 10 µM | relative viability EC50 [5]: > 10 µM | drug sensitivity score [6]: 0 | drug sensitivity score [7]: 0 | drug sensitivity score [8]: 0 | drug sensitivity score [9]: 0 | drug sensitivity score [10]: 0 | cell viability ([11]; 1 nM): 93.6% | cell viability ([11]; 10 nM): 109% | cell viability ([11]; 100 nM): 111% | cell viability ([11]; 1000 nM): 97.9% | cell viability ([11]; 10000 nM): 91.2% | cell viability ([12]; 1 nM): 100% | cell viability ([12]; 10 nM): 100% | cell viability ([12]; 100 nM): 98.7% | cell viability ([12]; 1000 nM): 98.2% | cell viability ([12]; 10000 nM): 97.9% | cell viability ([13]; 1 nM): 100% | cell viability ([13]; 10 nM): 111% | cell viability ([13]; 100 nM): 106% | cell viability ([13]; 1000 nM): 96.8% | cell viability ([13]; 10000 nM): 101% | cell viability ([14]; 1 nM): 101% | cell viability ([14]; 10 nM): 100% | cell viability ([14]; 100 nM): 97.5% | cell viability ([14]; 1000 nM): 102% | cell viability ([14]; 10000 nM): 95% | cell viability ([15]; 1 nM): 102% | cell viability ([15]; 10 nM): 101% | cell viability ([15]; 100 nM): 97% | cell viability ([15]; 1000 nM): 102% | cell viability ([15]; 10000 nM): 88.6%

Nc1ccc(C(=O)O)cc1 [potassium-p-aminobenzoate]
relative viability EC50 [1]: > 10 µM | relative viability EC50 [2]: > 10 µM | relative viability EC50 [3]: > 10 µM | relative viability EC50 [4]: > 10 µM | relative viability EC50 [5]: > 10 µM | drug sensitivity score [6]: 0 | drug sensitivity score [7]: 0 | drug sensitivity score [8]: 0 | drug sensitivity score [9]: 0 | drug sensitivity score [10]: 0 | cell viability ([11]; 1 nM): 102% | cell viability ([11]; 10 nM): 93.6% | cell viability ([11]; 100 nM): 109% | cell viability ([11]; 1000 nM): 112% | cell viability ([11]; 10000 nM): 103% | cell viability ([12]; 1 nM): 95.6% | cell viability ([12]; 10 nM): 97.1% | cell viability ([12]; 100 nM): 95.1% | cell viability ([12]; 1000 nM): 102% | cell viability ([12]; 10000 nM): 102% | cell viability ([13]; 1 nM): 105% | cell viability ([13]; 10 nM): 105% | cell viability ([13]; 100 nM): 104% | cell viability ([13]; 1000 nM): 97.1% | cell viability ([13]; 10000 nM): 100% | cell viability ([14]; 1 nM): 96.2% | cell viability ([14]; 10 nM): 101% | cell viability ([14]; 100 nM): 94.4% | cell viability ([14]; 1000 nM): 103% | cell viability ([14]; 10000 nM): 94.9% | cell viability ([15]; 1 nM): 107% | cell viability ([15]; 10 nM): 97.1% | cell viability ([15]; 100 nM): 99% | cell viability ([15]; 1000 nM): 105% | cell viability ([15]; 10000 nM): 103%
